Assay results reported in paper PMC9486805, “Identification of a Phage Display-Derived Peptide Interacting with the N-Terminal Region of Factor VII Activating Protease (FSAP) Enables Characterization of Zymogen Activation” (ACS Chemical Biology, 2022).

Tests used:
[1] = test system: immobilized pro-FSAP; assay: Activation of pro-FSAP captured from plasma on anti-FSAP antibody-coated wells; type: biochemical, human; settings: peptide 0–25 μM in solution, duplicate wells (Fig 5A)
Experimental: Figure 5 Characteristics of pro-FSAP activation in plasma by NNKC9/41: (A) neutravidin-coated wells were used to capture biotinylated NNKC9/41 or scrambled control peptide (0–25 μM). Hirudin plasma (1:10) was incubated in the wells for 1 h at 37 °C to allow for binding and activation of pro-FSAP. In parallel, wells were coated with rabbit polyclonal anti-FSAP antibody (2 μg/mL) and plasma was added to immobilize FSAP in the presence of solution phase NNKC9/41 or its scrambled control (0–25 μM). Fluorogenic substrate turnover (Ac–Ala–Lys–Nle–Arg–AMC) was monitored. (B) Plasma was incubated with NNKC9/41 and Ser–Ser control (0–50 μM each) in the absence of any antibody or in the presence of MA-FSAP-38C7 or MA-FSAP-32F10 (5 μg/mL) and the FSAP activity was monitored. (C) Plasma was incubated with NNKC9/41 (25 μM) in the presence of MA-FSAP-38C7 or MA-FSAP-32F10 (0–10 μg/mL) and the FSAP activity was monitored. For (A)–(C), results are shown as mean + range of duplicate wells.

[2] = Substrate turnover in FSAP-depleted plasma; type: biochemical, human; settings: FSAP-depleted citrate plasma 1:12; 25 μM (Fig 6A)
Experimental: (§1) Figure 6 Pro-FSAP activation and clotting in plasma by NNKC9/41: (A) citrate plasma (1:12 dilution) from donors with WT/WT, WT/MI, and MI/MI genotypes and WT-FSAP-deficient plasma (FSAP-DP) were compared. Substrate turnover was monitored after addition of NNKC9/41 or the Ser–Ser linear peptide (25 μM each). Results are shown as mean + range of duplicate wells. (B) Pooled prothrombin-deficient citrated plasma (1:5 dilution) was recalcified with 10 mM CaCl2 and incubated with NNKC9/41 or scrambled control peptide (0–25 μM each) for 60 min at 37 °C in the presence or absence of the FSAP-inhibitory MA-FSAP-38C7 (5 μg/mL). Initiation of clotting was achieved by adding the tissue factor/phospholipid and prothrombin complex concentrate. Clotting time was measured as diluted prothrombin time (dPT) in seconds. Data are the mean of three independent experiments. The relative dPT in % of the untreated control is presented as mean ± standard error (SE) (*p <0.05, two-way analysis of variance (ANOVA) and Bonferroni post-test).
Human citrate plasma (0.38% w/v) or hirudin plasma (25 μg/mL Lepirudin) was obtained from five healthy donors. […] Hydrolysis of the fluorogenic substrates was measured using a Synergy HI plate reader with excitation at 320 nm and emission at 460 nm at 37 °C for 60 min. The maximal velocity was calculated from the linear part of the progress curve. […]

[3] = test system: FSAP heavy chain; assay: Binding of biotinylated peptides to captured recombinant FSAP heavy chain; design: species or system human; settings: peptide 1 μM; triplicate wells (Fig 2E)
Experimental: (§2) Figure 2 NNKC9/41 interacts with the NTR of pro-FSAP: (A) To determine peptide binding to pro-FSAP, wells were coated with 2 μg/mL pro-FSAP and biotinylated NNKC9/41 and NNK11/189 and their respective scrambled controls were added in different concentration (0–5 μM). Peroxidase-labeled streptavidin was used to detect peptide binding. (B) Same procedure as in (A) except that different proteins were immobilized and biotinylated NNKC9/41 (0–30 μM) was added and its binding was measured. (C) Schematic structure of pro-FSAP with the heavy chain consisting of an NTR, three EGF domains, and a kringle domain, followed by the light chain harboring the serine protease domain (SPD). The binding domains of antibodies used in this study are indicated. (D) Recombinant complete heavy chain (heavy) and truncated heavy chain variants ΔNTR, ΔEGF1, ΔEGF2, ΔEGF3, and ΔKringle were expressed in bacteria and analyzed by sodium dodecyl sulfate poly(acrylamide) gel electrophoresis (SDS-PAGE) followed by Coomassie staining. […] Biotinylated NNKC9/41 or the scrambled control peptide was added at 1 μM and peptide binding was measured with peroxidase-linked streptavidin. […]
(§3) Wells were coated with anti-FSAP polyclonal antibodies (5 μg/mL). […] Subsequently, the plates were washed, and bound peptides were detected with peroxidase-coupled streptavidin. […]

[4] = test system: extrinsic pathway of coagulation; assay: Plasma clotting assay, diluted prothrombin time (dPT); type: biochemical, human; settings: prothrombin-deficient citrated plasma 1:5, 10 mM CaCl2; peptide 0–25 μM, 60 min 37 °C; three experiments (Fig 6B)
Experimental: as §1, with “The relative dPT in % of the untreated control is presented as mean ± standard error (SE) (*p <0.05, two-way analysis of variance (ANOVA) and Bonferroni post-test).” left out
Prothrombin-deficient citrated pool plasma (Haemochrom Diagnostica, diluted 1:5 in HBS, pH 7.4) was recalcified with 10 mM CaCl2 and incubated with peptides for 60 min at 37 °C in the presence or absence of the FSAP-inhibitory MA-FSAP-38C7 (5 μg/mL). […] Clot formation was measured optically at 405 nm in a plate reader (Tecan, Crailsheim, Germany). The time from starting the reaction to 50% maximum clot turbidity was measured as diluted prothrombin time (dPT) in seconds.

[5] = test system: plasma proteins; assay: Binding of biotinylated NNKC9/41 to immobilized plasma proteins; settings: Fig 2B, as summarised
Experimental: as §2, §3

Sequence: CRGAMWMYKRC [NNKC9/41]
- activation of captured pro-FSAP [1]: found to activate pro-FSAP
- substrate turnover [2]: no turnover of the substrate
- peptide binding to heavy chain [3]: high binding
- clotting time (diluted prothrombin time) [4]: significant effect on lowering the clotting time
- binding to other plasma proteins [5]: did not bind to any other plasma proteins tested, except FSAP
